According to patent US10053454B2 (Bristol-Myers Squibb Company, priority 2013, dated 2018):

Target: BRD4 (Homo sapiens, UniProt O60885)
Assay: Time Resolved Fluorescence Resonance Energy Transfer (TR-FRET) binding assay
Conditions: one of the FRET assays described (BRD4 construct not given)

SMILES	IC50 [nM]
Cc1noc(C)c1-c1cc(C(N)=S)c2c(c1)c1ccc(C(=O)N3CCOCC3)cc1n2CC1CC1 [Example 68, 9-(cyclopropylmethyl)-3-(3,5-dimethyl-4-isoxazolyl)-7-(4-morpholinylcarbonyl)-9H-carbazole-1-carbothioamide]	< 5000
Cc1noc(C)c1-c1cc(C(N)=O)c2c(c1)c1ccc(C(C)(C)N3CCOCC3)cc1n2CC1CC1 [Example 52, 9-(cyclopropylmethyl)-3-(3,5-dimethyl-4-isoxazolyl)-7-(1-methyl-1-(4-morpholinyl)ethyl)-9H-carbazole-1-carboxamide]	< 50
CCNC(=O)n1c2cc(C(=O)N3C[C@@H](C)O[C@@H](C)C3)ccc2c2cc(-c3c(C)noc3C)cc(C(N)=O)c21 [Example 61, 3-(3,5-dimethyl-4-isoxazolyl)-7-(cis-2,6-dimethylmorpholine-4-carbonyl)-N9-ethyl-9H-carbazole-1,9-dicarboxamide]	< 5000
CNc1ccc2c3cc(-c4c(C)noc4C)cc(C(N)=O)c3n(CC3CC3)c2c1 [Example 37, 9-(cyclopropylmethyl)-3-(3,5-dimethyl-4-isoxazolyl)-7-(methylamino)-9H-carbazole-1-carboxamide]	< 500
Cc1noc(C)c1-c1cc(C(N)=O)c2c(c1)c1ccc(C(C)(C)O)cc1n2S(=O)(=O)C1CC1 [Example 55, 9-(cyclopropylsulfonyl)-3-(3,5-dimethyl-4-isoxazolyl)-7-(1-hydroxy-1-methylethyl)-9H-carbazole-1-carboxamide]	< 50
Cc1noc(C)c1-c1cc(C(N)=O)c2c(c1)c1ccc(CO)cc1n2CC1CC1 [Example 46, 9-(cyclopropylmethyl)-3-(3,5-dimethyl-4-isoxazolyl)-7-(hydroxymethyl)-9H-carbazole-1-carboxamide]	< 500
Cc1noc(C)c1-c1cc(C(N)=O)c2c(c1)c1ccc(C(=O)N3C[C@@H](C)O[C@@H](C)C3)cc1n2CC1CC1 [Example 2, 9-(cyclopropylmethyl)-3-(3,5-dimethyl-4-isoxazolyl)-7-((cis-2,6-dimethyl-4-morpholinyl)carbonyl)-9H-carbazole-1-carboxamide]	< 50
Cc1noc(C)c1-c1cc(C(N)=O)c2c(c1)c1ccc(C(=O)N3CC(F)C3)cc1n2S(C)(=O)=O [Example 7, 3-(3,5-dimethyl-4-isoxazolyl)-7-((3-fluoro-1-azetidinyl)carbonyl)-9-(methylsulfonyl)-9H-carbazole-1-carboxamide]	< 50
COC1CN(C(=O)c2ccc3c4cc(-c5c(C)noc5C)cc(C(N)=O)c4n(S(C)(=O)=O)c3c2)C1 [Example 14, 3-(3,5-dimethyl-4-isoxazolyl)-7-((3-methoxy-1-azetidinyl)carbonyl)-9-(methylsulfonyl)-9H-carbazole-1-carboxamide]	< 50
Cc1noc(C)c1-c1cc(C(N)=O)c2c(c1)c1ccc(C(=O)N3CCCC(F)C3)cc1n2S(=O)(=O)C1CC1 (stereo not drawn) [Example 23, 9-(cyclopropylsulfonyl)-3-(3,5-dimethyl-4-isoxazolyl)-7-((3-fluoro-1-piperidinyl)carbonyl)-9H-carbazole-1-carboxamide]	< 50
Cc1noc(C)c1-c1cc(C(N)=O)c2c(c1)c1c(C(=O)N3C[C@@H](C)O[C@@H](C)C3)cc(OC(F)(F)F)cc1n2S(=O)(=O)C1CC1 [Example 75, 9-(cyclopropylsulfonyl)-3-(3,5-dimethyl-4-isoxazolyl)-5-((cis-2,6-dimethyl-4-morpholinyl)carbonyl)-7-(trifluoromethoxy)-9H-carbazole-1-carboxamide]	< 500
COc1ccc2c(c1)c1cc(-c3c(C)noc3C)cc(C(N)=O)c1n2S(C)(=O)=O [Example 72, 3-(3,5-dimethylisoxazol-4-yl)-6-methoxy-9-(methylsulfonyl)-9H-carbazole-1-carboxamide]	< 500
Cc1nnn(C)c1-c1cc(C(N)=O)c2c(c1)c1ccc(C(=O)N3C[C@@H](C)O[C@@H](C)C3)cc1n2CC1CC1 [Example 84, 9-(cyclopropylmethyl)-7-((cis-2,6-dimethyl-4-morpholinyl)carbonyl)-3-(1,4-dimethyl-1H-1,2,3-triazol-5-yl)-9H-carbazole-1-carboxamide]	< 500
COc1ccc2c3cc(-c4c(C)noc4C)cc(C(N)=O)c3n(CC3CC3)c2c1 [Example 49, 9-(cyclopropylmethyl)-3-(3,5-dimethyl-4-isoxazolyl)-7-methoxy-9H-carbazole-1-carboxamide]	< 50
Cc1noc(C)c1-c1cc(C(N)=O)c2c(c1)c1ccc(OC(=O)N3CCOCC3)cc1n2CC1CC1 [Example 50, 8-carbamoyl-9-(cyclopropylmethyl)-6-(3,5-dimethyl-4-isoxazolyl)-9H-carbazol-2-yl morpholine-4-carboxylate]	< 500
Cc1noc(C)c1-c1cc(C(N)=O)c2c(c1)c1ccc(C(=O)N3CCC(F)(F)CC3)cc1n2S(=O)(=O)C1CC1 [Example 26, 9-(cyclopropylsulfonyl)-7-((4,4-difluoro-1-piperidinyl)carbonyl)-3-(3,5-dimethyl-4-isoxazolyl)-9H-carbazole-1-carboxamide]	< 50
Cc1noc(C)c1-c1cc(C(N)=O)c2c(c1)c1ccc(NCC3CCCC3)cc1n2CC1CC1 [Example 39, 7-(cyclopentylmethylamino)-9-(cyclopropylmethyl)-3-(3,5-dimethyl-4-isoxazolyl)-9H-carbazole-1-carboxamide]	< 500
Cc1noc(C)c1-c1cc(C(N)=O)c2c(c1)c1ccc(C(=O)N3CC(F)(F)C3)cc1n2S(C)(=O)=O [Example 11, 7-((3,3-difluoro-1-azetidinyl)carbonyl)-3-(3,5-dimethyl-4-isoxazolyl)-9-(methylsulfonyl)-9H-carbazole-1-carboxamide]	< 50
Cc1noc(C)c1-c1cc(C(N)=O)c2c(c1)c1ccc(N)cc1n2CC1CC1 [Example 28, 7-amino-9-(cyclopropylmethyl)-3-(3,5-dimethyl-4-isoxazolyl)-9H-carbazole-1-carboxamide]	< 500
Cc1noc(C)c1-c1cc(C(N)=O)c2c(c1)c1ccc(C(=O)N3CC(F)C3)cc1n2S(=O)(=O)C1CC1 [Example 21, 9-(cyclopropylsulfonyl)-3-(3,5-dimethyl-4-isoxazolyl)-7-((3-fluoro-1-azetidinyl)carbonyl)-9H-carbazole-1-carboxamide]	< 50
Cc1noc(C)c1-c1cc(C(N)=O)c2c(c1)c1ccc(N3CCCS3(=O)=O)cc1n2CC1CC1 [Example 71, 9-(cyclopropylmethyl)-3-(3,5-dimethyl-4-isoxazolyl)-7-(1,1-dioxido-2-isothiazolidinyl)-9H-carbazole-1-carboxamide]	< 50
